Data on 1 compound can be found in paper PMC9959244, “Revisiting the Solubility–Permeability Relationship with Hydrophobic Drug Umifenovir in Pluronic Solutions: Impact of pH and Co-Solvent” (Pharmaceutics, 2023).

Molecules are shown by their SMILES.

On the set-up of series [1]: method as in earlier work. The conditions noted are these: cited from earlier work.
Series [2] in a line: Quantitative parameters of UMF solubilization by F-127 micelles (from phase solubility plots). The class given is physicochemical. The text has this: To elucidate the solubilizing potential of the micelles of F-127 towards UMF, we determined the solubilizing capacity (χ) equal the amount of UMF solubilized by one mole of F-127 using the equation given in Stephenson et al.:(2) χ=(S2−S20)/(Cpolym−cmc)=(SUMF−SUMF0)/(CF−127−cmc) where S2 and S20 are the total compound solubility at a specific polymer concentration in the solution and the intrinsic solubility, respectively, Cpolym is the polymer (F-127) concentration, cmc is the polymer critical micelle concentration, expressed in mol∙L^−1, and (Cpolym—cmc) is the concentration of the micelles. […] Solubilizing capacities were determined from the slopes of the dependences illustrated in Figure S2. […]
Micelle formation occurs above the critical micelle concentration and is accompanied by the removal of the hydrophobic tails of F-127 molecules from the aqueous surroundings, the association of monomers and the decrease of the free energy of the entire system. […] In order to quantify the apparent free energy of solubilization (transferring of the compound from the aqueous to the micellar phase) at 310.15 K, the following equation was applied:(4) ΔGS310.15K=−RT⋅lnKm/w where ΔGS310.15K is the apparent solubilization free energy, R is the universal gas constant, and Km/w is the micelle/water partition coefficient of UMF. […]

For `CCOC(=O)c1c(CSc2ccccc2)n(C)c2cc(Br)c(O)c(CN(C)C)c12` [UMF, 6-bromo-4-dimethylaminomethyl-5-hydroxy-1-methyl-2-phenylthiomethyl indole-3-carboxylic acid ethyl ester], the pKa in series [1] was 6.0. In series [2], the “Higher solubilizing potential of F-127 (Km/w) towards UMF base at pH 7.4 vs UMF∙HCl∙H2O at pH 2.0” value is given as “approximately 5.4 fold”. In addition, the logKm/w in series [2] (UMF-buffer pH 7.4-pluronic F-127 system) is given as 3.88.
